Assay in all cases: relative viability (nuclei count vs DMSO), 5 days (fraction); higher = more cells survive
Compound in one assay: CC1=CC(=C(N1C2=CC=C(C=C2)Cl)C)C(=O)CN3CCCCC3 [IU1-47]
In a few lines: (§1)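 Viability is treated-well nuclei as a fraction of vehicle-well nuclei, reported as the median across plates. Before counting, lung cancer cell lines were kept overnight at 37 °C in 1536-well plates, pinned with five √10-spaced library-drug doses on vehicle-anchored plates, and left 5 days without medium change, then fixed, permeabilised and Hoechst-stained in one step, imaged at 4× and counted by MetaXpress. A plate passed only if control CV was below 25% and at least one doubling occurred.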

Compound in the next assay: Cc1nc(C(=O)NCC(=O)O)c(O)c2ccc(Oc3ccccc3)cc12 [FG-4592]
In outline:
as §1

Compound in the assay “FG-4592 + Navitoclax”: Cc1nc(C(=O)NCC(=O)O)c(O)c2ccc(Oc3ccccc3)cc12 [FG-4592] + CC1(C)CCC(c2ccc(Cl)cc2)=C(CN2CCN(c3ccc(C(=O)NS(=O)(=O)c4ccc(N[C@H](CCN5CCOCC5)CSc5ccccc5)c(S(=O)(=O)C(F)(F)F)c4)cc3)CC2)C1 [Navitoclax] (partner 0.5 µM)
In outline:
(§2)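 Lung cancer cell lines were seeded in 1536-well plates and dosed by pin tool the next day, with either a single drug or a fixed anchor-drug dose combined with five library-drug doses (not always all listed) spaced in √10 steps. Five days later, one step fixed the cells and stained their nuclei (final 0.05% Triton X-100, 1% formaldehyde, 1 ug/ml Hoechst), and nuclei were counted on 4× images. Relative viability is the nuclei count in treated wells divided by the count in vehicle wells, and each value is the median of duplicate plates.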

Compound in the assay “IU1-47 + Trametinib”: CC1=CC(=C(N1C2=CC=C(C=C2)Cl)C)C(=O)CN3CCCCC3 [IU1-47] + CC(=O)Nc1cccc(-n2c(=O)n(C3CC3)c(=O)c3c(Nc4ccc(I)cc4F)n(C)c(=O)c(C)c32)c1 [Trametinib] (partner 0.02 µM)
In outline: as §2

For the cell line EPLC-272H, the relative viability was found to be 1.02 with IU1-47 (0.08 µM); 1.05 with IU1-47 (0.253 µM); 0.933 with IU1-47 (0.8 µM); 0.806 with IU1-47 (8 µM); 0.886 in the assay with FG-4592 (0.08 µM); 0.777 in the assay with FG-4592 (0.253 µM). Besides, the relative viability in the assay with FG-4592 (0.8 µM) stood at 0.7; in the assay with FG-4592 (2.53 µM), 0.901; with FG-4592 (8 µM), 0.889; with FG-4592 + Navitoclax (first compound 0.08 µM), 1.15; with FG-4592 + Navitoclax (first compound 0.253 µM) it was 1.09; with FG-4592 + Navitoclax (first compound 0.8 µM), 0.775. Further, the relative viability is 1.05 with FG-4592 + Navitoclax (first compound 2.53 µM); 1.08 in the assay with FG-4592 + Navitoclax (first compound 8 µM); 0.259 in the assay with IU1-47 + Trametinib (first compound 0.08 µM); 0.28 in the assay with IU1-47 + Trametinib (first compound 0.253 µM); 0.264 with IU1-47 + Trametinib (first compound 0.8 µM); 0.258 in the assay with IU1-47 + Trametinib (first compound 8 µM).
For NCI-H1915, the relative viability in the assay with IU1-47 (0.08 µM) amounted to 0.995; with IU1-47 (0.253 µM), 0.989; with IU1-47 (0.8 µM), 1.04; with IU1-47 (8 µM), 0.905; in the assay with FG-4592 (0.08 µM), 0.951; with FG-4592 (0.253 µM), 0.959. Besides, the relative viability with FG-4592 (0.8 µM) worked out at 0.918; with FG-4592 (2.53 µM), 0.955; in the assay with FG-4592 (8 µM), 1.02; in the assay with FG-4592 + Navitoclax (first compound 0.08 µM), 0.744; with FG-4592 + Navitoclax (first compound 0.253 µM), 0.733; with FG-4592 + Navitoclax (first compound 0.8 µM), 0.838. In addition, the relative viability in the assay with FG-4592 + Navitoclax (first compound 2.53 µM) turned out to be 0.778; with FG-4592 + Navitoclax (first compound 8 µM), 0.786; with IU1-47 + Trametinib (first compound 0.08 µM) it was 0.296; with IU1-47 + Trametinib (first compound 0.253 µM), 0.288; with IU1-47 + Trametinib (first compound 0.8 µM), 0.28; in the assay with IU1-47 + Trametinib (first compound 2.53 µM), 0.3. Further, the relative viability with IU1-47 + Trametinib (first compound 8 µM) amounted to 0.324.
Consider NCI-H2405, for which the relative viability with IU1-47 (0.08 µM) came to 1.07; with IU1-47 (0.253 µM), 1.06; with IU1-47 (0.8 µM), 1.03; with IU1-47 (2.53 µM) it was 0.863; with IU1-47 (8 µM), 1.01; with FG-4592 (0.08 µM) it was 0.869. For the same cell line, the relative viability with FG-4592 (0.253 µM) came out at 0.826; with FG-4592 (0.8 µM) it was 0.912; with FG-4592 (2.53 µM), 0.928; in the assay with FG-4592 (8 µM), 0.944; with FG-4592 + Navitoclax (first compound 0.253 µM), 0.437; in the assay with FG-4592 + Navitoclax (first compound 0.8 µM) it was 0.874. In addition, the relative viability with FG-4592 + Navitoclax (first compound 2.53 µM) was 0.731; in the assay with FG-4592 + Navitoclax (first compound 8 µM), 0.711; in the assay with IU1-47 + Trametinib (first compound 0.08 µM) it was 0.69; in the assay with IU1-47 + Trametinib (first compound 0.253 µM) it was 0.702; with IU1-47 + Trametinib (first compound 0.8 µM), 0.762; with IU1-47 + Trametinib (first compound 2.53 µM), 0.672. Besides, the relative viability with IU1-47 + Trametinib (first compound 8 µM) was 0.622.
Consider NCI-H322M, for which the relative viability with IU1-47 (0.08 µM) is 0.972; with IU1-47 (0.253 µM) it was 1.02; with IU1-47 (0.8 µM), 0.919; with IU1-47 (2.53 µM) it was 0.922; with IU1-47 (8 µM), 0.925; with FG-4592 (0.08 µM), 0.812. The relative viability with FG-4592 (0.253 µM) turned out to be 0.907; with FG-4592 (0.8 µM), 0.844; with FG-4592 (2.53 µM), 0.897; in the assay with FG-4592 (8 µM), 0.89; in the assay with FG-4592 + Navitoclax (first compound 0.08 µM) it was 1.3; with FG-4592 + Navitoclax (first compound 0.253 µM) it was 1.21. Further, the relative viability was determined as 1.08 in the assay with FG-4592 + Navitoclax (first compound 0.8 µM); 1 in the assay with FG-4592 + Navitoclax (first compound 2.53 µM); 1.19 with FG-4592 + Navitoclax (first compound 8 µM); 0.547 in the assay with IU1-47 + Trametinib (first compound 0.08 µM); 0.487 in the assay with IU1-47 + Trametinib (first compound 0.253 µM); 0.503 with IU1-47 + Trametinib (first compound 0.8 µM). Besides, the figures for the relative viability with IU1-47 + Trametinib (first compound 2.53 µM) and in the assay with IU1-47 + Trametinib (first compound 8 µM) were 0.464 and 0.55, respectively.

Values taken from the supplement of paper PMC10307832.
